Entries after “also recorded” stand apart in the source; their conditions may differ.

The target of one test is Aβ oligomers (Homo sapiens, UniProt P05067). The experiment in a line: Analysis of binding property using QCM apparatus, sensor with Aβ oligomers fixed (Test Example 3). To be noted: final concentration 10 μM in PBS. The protocol:
(§1) Aβ oligomers or Aβ fibrils were fixed to the sensor portion of the QCM apparatus, and immersed in PBS in a glass container. Subsequently, Compound 8 or Compound 1 was added thereto to a final concentration of 10 μM, and a frequency change was recorded from immediately after the addition.

For another test, the target named is T1, senile plaques (Homo sapiens, UniProt P05067).
T1 construct: Spots of amyloid β, which forms senile plaques; tissue Jackson Laboratory; host or cells: brain of live APP/PS1 double transgenic mice
The experiment in a line: 19F-MR image measurement of the brain after tail vein injection (Test Example 1). It is filed as in vivo, mouse. The conditions noted are these: 200 mg/kg tail vein, three-hour measurement beginning five hours after injection, 7T. The protocol: Compound 1 was weighed out in an amount of 10 mg, and 0.125 ml of 80% Tween-80 was added thereto, followed by dissolution using a glass rod under heating. Subsequently, 0.875 ml of physiological saline was added thereto to prepare a solution for injection (10 mg/ml). The solution was injected in a total amount of 200 mg/kg at […] to the tail vein of each of the genetically modified model mice of Alzheimer's disease (APP/PS1) and the normal wild mice (Wild), which had been subjected to pentobarbital sodium anesthesia. As the genetically modified model mice of Alzheimer's disease (APP/PS1), amyloid precursor protein and presenilin 1 double transgenic mice (APP/PS1, purchased from Jackson Laboratory and bred) were used. After the completion of the injection, under anesthesia, the head of each mouse was continuously evaluated every hour using an MRI apparatus, and all data were added to form images. The brain image of ^19F-MRI was obtained according to the chemical shift imaging method (CSI method). As the MRI apparatus, a 7T Unity Inova MR Scanner (produced by Varian Medical System) was used. Each of the genetically modified model mice of Alzheimer's disease (APP/PS1) and normal wild mice (Wild) were injected with Compound 1. […] FIGS. 1A and 1C are ^19F-MRI images, and FIGS. 1B and 1D are composite photos of ^19F-MRI and ^1H-MRI images.

The next test addresses T2, Aβ fibrils (Homo sapiens, UniProt P05067).
T2 construct: Aβ oligomers or Aβ fibrils were fixed to the sensor portion of the QCM apparatus
The experiment in a line: Analysis of binding property using QCM apparatus, sensor with Aβ fibrils fixed (Test Example 3). The conditions noted are these: final concentration 10 μM in PBS. The protocol: as §1

T2 sequence (P05067 672-713 limits assumed): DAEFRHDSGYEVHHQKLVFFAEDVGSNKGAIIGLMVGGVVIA
Chain of Aβ oligomers (P05067 672-713 limits assumed): as above
T1 sequence (P05067 672-713 limits assumed): as above

As to `CN(C)c1ccc(/C=C/c2nc3ccc(OCCOCCOCCOCCOCCOCCOCCOCC(F)(F)F)cc3o2)cc1` [Compound 1, 6-(3′,6′,9′,12′,15′,18′,21′-heptaoxa-23′,23′,23′-trifluorotricosanyloxy)-2-(4′-dimethylaminostyryl)benzoxazole], at Aβ oligomers, the “binding to Aβ oligomers (conclusion from QCM)” value is listed as “does not bind to Aβ oligomers”. Further, the “19F-MR signals presumed to be senile plaques inside of the brain” value at senile plaques (genetically modified model mice of Alzheimer's disease (APP/PS1)) is given as “signals presumed to be senile plaques were detected inside of the brain”; on senile plaques (normal wild mouse (Wild)) it was “such signals were not detected”. Also, the “binding to Aβ fibrils (conclusion from QCM)” value on Aβ fibrils was “binds to Aβ fibrils”.
With `COC(=O)CCC(C(=O)/C=C/c1ccc(O)c(OC(F)(F)F)c1)C(=O)/C=C/c1ccc(O)c(OC(F)(F)F)c1` [Compound 8], the “binding to Aβ oligomers (conclusion from QCM)” value on Aβ oligomers is “binding to both Aβ oligomers and Aβ fibrils”. Moreover, on Aβ fibrils, the “QCM frequency change, sensor with Aβ fibrils fixed (Fibrillar) compared to Control” value is listed as “significant frequency reduction; also recorded: frequency reduction was observed”; the “binding to Aβ fibrils (conclusion from QCM)” value is “binding to both Aβ oligomers and Aβ fibrils”.
